Laboratory results from patent US5591741A, “Fungicidal spiroheterocyclic derivatives” (American Cyanamid Company, priority 1993, dated 1997).

Experiments:
Plasmopara viticola = experiment: Antisporulant activity against vine downy mildew (PVA); assay type: in vivo; settings: vine leaves, antisporulant foliar spray, 600 ppm, 750 l/ha
How it was run: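 Cabernet Sauvignon vines (~8 cm) inoculated on lower leaf surfaces with 5×10^4 zoosporangia/ml, held 24 h at 21° C high humidity then 24 h glasshouse. Infected leaves sprayed underside with 600 ppm compound in 1:1 water/acetone, 0.04% Tween 20, 750 l/ha; 96 h glasshouse, 24 h humidity. Sporulating leaf area rated versus control.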

Alternaria solani = experiment: Activity against tomato early blight (AS); assay type: in vivo; settings: Table VI; tomato seedlings, contact prophylactic foliar spray, 4 days
How it was run: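 Foliar contact prophylactic spray on tomato seedlings (cv Outdoor Girl, second true leaf expanded) in acetone/water 50:50 with 0.04% Tween 20; 24 h at 20° C, 40% R.H., then inoculation with 10^4 spores/ml A. solani conidia. Kept moist at 21° C; lesion cover rated 4 days post-inoculation against untreated or diluent-sprayed controls.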

Botrytis cinerea = experiment: Direct protectant activity against broad bean grey mould (BCB); assay type: in vivo; settings: direct protectant foliar spray, 600 ppm, 4 days
How it was run: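 Broad bean plants (cv The Sutton, two leaf pairs) sprayed on upper leaf surfaces at 600 ppm, then inoculated 24 h later with 10^6 conidia/ml. Kept 4 days at 22 °C, high humidity; disease control rated from % leaf area with lesions against untreated or diluent controls.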

Leptosphaeria nodorum = experiment: Activity against wheat leafspot (LN); assay type: in vivo; settings: direct therapeutic foliar spray, 600 ppm, 6-8 days
How it was run: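 Wheat cv Norman at single-leaf stage spray-inoculated with 1.5×10^6 conidia/ml, held 24 h at high humidity, then sprayed therapeutically with test compound at 600 ppm. Kept 6-8 days at 22° C, 70% humidity; lesion density per leaf rated against untreated or diluent-sprayed controls.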

[1] = test system: Erysiphe graminis f.sp. hordei; experiment: Activity against barley powdery mildew, direct therapeutic (EGT); assay type: in vivo; settings: direct therapeutic foliar spray, 600 ppm, up to 7 days
How it was run: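 Barley seedlings (cv. Golden Promise, single-leaf stage) were dusted with mildew conidia one day before a therapeutic foliar spray of 600 ppm compound. Plants were kept at 18 °C and 40% humidity for up to 7 days, and sporulating leaf area was rated against untreated or diluent-sprayed controls.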

[2] = test system: Erysiphe graminis f.sp. hordei; experiment: Direct protectant activity against barley powdery mildew (EGP); assay type: in vivo; settings: direct protectant foliar spray, 8 days
How it was run: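 Barley seedlings (cv Golden Promise, single-leaf stage) were foliar-sprayed, held 24 h at 18 °C/40% RH, then dusted with mildew conidia. After 8 days at 18 °C/40% RH, sporulating leaf area was scored as a rating against untreated or diluent-sprayed controls.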

Phytophthora infestans = assay type: in vivo; settings: tomato, direct protectant foliar spray
[3] = test system: Pseudocercosporella herpotrichoides; experiment: Activity against wheat eyespot in-vitro (PHI); assay type: cell-based; settings: 10 ppm, 10 days, 20° C., mycelial growth
How it was run: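 P. herpotrichoides mycelial fragments (5×10^4/ml) grown in half-strength PDB with compound at 10 ppm final, added from acetone. Incubated 10 days at 20 °C; mycelial growth rated against untreated or diluent controls.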

Rhizoctonia solani = experiment: Activity against Rhizoctonia in-vitro (RSI); assay type: cell-based; settings: 10 ppm, 10 days, 20° C., mycelial growth
How it was run: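 R. solani mycelial fragments (5×10^4/ml) in half-strength Potato Dextrose Broth with compound added from acetone to 10 ppm final. Mycelial growth assessed after 10 days at 20° C, rated against untreated or diluent control.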

Venturia inaequalis = experiment: Activity against apple scab in-vitro (VII); assay type: cell-based; settings: 10 ppm, 10 days, 20° C., mycelial growth
How it was run: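 Compound in acetone was tested at 10 ppm final in half-strength Potato Dextrose Broth inoculated with V. inaequalis mycelial fragments and spores at 5×10^4 propagules/ml. After 10 days at 20° C, mycelial growth was rated against untreated or diluent controls.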

Pyricularia oryzae = assay type: in vivo; settings: rice seedlings, direct therapeutic foliar spray, 600 ppm, 4-5 days

Structure (SMILES)	disease control rating PVA (Plasmopara viticola)	disease control rating AS (Alternaria solani)	disease control rating BCB (Botrytis cinerea)	disease control rating LN (Leptosphaeria nodorum)	disease control rating EGT [1]	disease control rating EGP [2]	disease control rating PIP (Phytophthora infestans)	disease control rating PHI [3]	disease control rating RSI (Rhizoctonia solani)	disease control rating VII (Venturia inaequalis)	disease control rating PO (Pyricularia oryzae)
CC1CC(C)CN(C2COC3(CCC(C(C)(C)C)CC3)C2)C1 (centres unmarked) [Compound 15]	0 (less than 50% disease control)	0 (less than 50% disease control)	0 (less than 50% disease control)	0 (less than 50% disease control)	2 (greater than 80% disease control)	2 (greater than 80% disease control)	0 (less than 50% disease control)	0 (less than 50% disease control)	0 (less than 50% disease control)	2 (greater than 80% disease control)	0 (less than 50% disease control)
CC(C)(C)C1CCC2(CC1)CC(NC1CCCCC1)CO2 (centres unmarked) [Compound 16]	0 (less than 50% disease control)	2 (greater than 80% disease control)	1 (about 50-80% disease control)	1 (about 50-80% disease control)	2 (greater than 80% disease control)	2 (greater than 80% disease control)	0 (less than 50% disease control)	0 (less than 50% disease control)	0 (less than 50% disease control)	2 (greater than 80% disease control)	0 (less than 50% disease control)
CC1CCCCN1C1COC2(CCC(C(C)(C)C)CC2)C1 (centres unmarked) [Compound 17]	0 (less than 50% disease control)	0 (less than 50% disease control)	0 (less than 50% disease control)	0 (less than 50% disease control)	2 (greater than 80% disease control)	2 (greater than 80% disease control)	0 (less than 50% disease control)	0 (less than 50% disease control)	0 (less than 50% disease control)	0 (less than 50% disease control)	0 (less than 50% disease control)
CC1CCCN(C2COC3(CCC(C(C)(C)C)CC3)C2)C1 (centres unmarked) [Compound 18]	0 (less than 50% disease control)	0 (less than 50% disease control)	0 (less than 50% disease control)	1 (about 50-80% disease control)	2 (greater than 80% disease control)	2 (greater than 80% disease control)	0 (less than 50% disease control)	0 (less than 50% disease control)	0 (less than 50% disease control)	1 (about 50-80% disease control)	0 (less than 50% disease control)
CC1CCN(C2COC3(CCC(C(C)(C)C)CC3)C2)CC1 (centres unmarked) [Compound 19]	0 (less than 50% disease control)	0 (less than 50% disease control)	0 (less than 50% disease control)	1 (about 50-80% disease control)	2 (greater than 80% disease control)	2 (greater than 80% disease control)	0 (less than 50% disease control)	0 (less than 50% disease control)	0 (less than 50% disease control)	1 (about 50-80% disease control)	0 (less than 50% disease control)
CN(C1CCCCC1)C1COC2(CCC(C(C)(C)C)CC2)C1 (centres unmarked) [Compound 20]	0 (less than 50% disease control)	0 (less than 50% disease control)	0 (less than 50% disease control)	0 (less than 50% disease control)	2 (greater than 80% disease control)	2 (greater than 80% disease control)	0 (less than 50% disease control)	0 (less than 50% disease control)	0 (less than 50% disease control)	1 (about 50-80% disease control)	0 (less than 50% disease control)
CC(C)(C)C1CCC2(CC1)CC(N1CCCCCC1)CO2 (centres unmarked) [Compound 21]	0 (less than 50% disease control)	0 (less than 50% disease control)	2 (greater than 80% disease control)	0 (less than 50% disease control)	2 (greater than 80% disease control)	2 (greater than 80% disease control)	0 (less than 50% disease control)	0 (less than 50% disease control)	0 (less than 50% disease control)	1 (about 50-80% disease control)	0 (less than 50% disease control)
CC(C)(C)C1CCC2(CC1)CC(Nc1ccccc1)CO2 (centres unmarked) [Compound 22]	0 (less than 50% disease control)	0 (less than 50% disease control)	0 (less than 50% disease control)	0 (less than 50% disease control)	1 (about 50-80% disease control)	1 (about 50-80% disease control)	0 (less than 50% disease control)	0 (less than 50% disease control)	0 (less than 50% disease control)	0 (less than 50% disease control)	0 (less than 50% disease control)
CC(C)(C)C1CCC2(CC1)CC(Nc1ccc(Cl)cc1)CO2 (centres unmarked) [Compound 23]	0 (less than 50% disease control)	0 (less than 50% disease control)	0 (less than 50% disease control)	0 (less than 50% disease control)	0 (less than 50% disease control)	0 (less than 50% disease control)	0 (less than 50% disease control)	0 (less than 50% disease control)	0 (less than 50% disease control)	2 (greater than 80% disease control)	0 (less than 50% disease control)
CC(C)(C)c1ccc(NC2COC3(CCC(C(C)(C)C)CC3)C2)cc1 (centres unmarked) [Compound 24]	0 (less than 50% disease control)	0 (less than 50% disease control)	0 (less than 50% disease control)	0 (less than 50% disease control)	0 (less than 50% disease control)	0 (less than 50% disease control)	0 (less than 50% disease control)	0 (less than 50% disease control)	0 (less than 50% disease control)	0 (less than 50% disease control)	0 (less than 50% disease control)
